According to ChEMBL document CHEMBL1201862, “PubChem BioAssay data set” (2004):
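Method: 48-hour compound exposure of cells in 96-well plates, five concentrations, linear interpolation of endpoints. Abbreviation: GI50, concentration required for 50% inhibition of growth.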 Active and inactive are the calls of the source. Rule as the data show it: active = GI50 up to about 1.1 µM and inactive = higher.

What was measured:
Assay in all cases: growth of human tumour cells (NCI), 48 h
786-0 = test system: 786-0
A498 = test system: A498
A549 = test system: A549
ACHN = test system: ACHN
CAKI-1 = test system: CAKI-1
CCRF-CEM = test system: CCRF-CEM
COLO 205 = test system: COLO 205
DLD-1 = test system: DLD-1
DMS-114 = test system: DMS-114
DMS-273 = test system: DMS-273
EKVX = test system: EKVX
HCC 2998 = test system: HCC 2998
HCT-15 = test system: HCT-15
HL-60 = test system: HL-60
HOP-18 = test system: HOP-18
HOP-62 = test system: HOP-62
HOP-92 = test system: HOP-92
HT-29 = test system: HT-29
IGROV-1 = test system: IGROV-1
K562 = test system: K562
KM-20L2 = test system: KM-20L2
KM12 = test system: KM12
LOX IMVI = test system: LOX IMVI
M19-MEL = test system: M19-MEL
MOLT-4 = test system: MOLT-4
Malme-3M = test system: Malme-3M
NCI-H226 = test system: NCI-H226
NCI-H23 = test system: NCI-H23
NCI-H460 = test system: NCI-H460
NCI-H522 = test system: NCI-H522
OVCAR-3 = test system: OVCAR-3
OVCAR-5 = test system: OVCAR-5
OVCAR-8 = test system: OVCAR-8
RPMI-8226 = test system: RPMI-8226
RXF 393 = test system: RXF 393
SF-268 = test system: SF-268
SF-295 = test system: SF-295
SF-539 = test system: SF-539
SK-MEL-28 = test system: SK-MEL-28
SK-MEL-2 = test system: SK-MEL-2
SK-MEL-5 = test system: SK-MEL-5
SK-OV-3 = test system: SK-OV-3
SN12C = test system: SN12C
SNB-19 = test system: SNB-19
SNB-75 = test system: SNB-75
SNB-78 = test system: SNB-78
SW-620 = test system: SW-620
TK-10 = test system: TK-10
U-251 = test system: U-251
UACC-257 = test system: UACC-257
UACC-62 = test system: UACC-62
UO-31 = test system: UO-31

For `Clc1ccc(OCCSCCCCCCCCCCSCCOc2ccc(Cl)cc2)cc1`, the GI50 (786-0) was > 100 µM (inactive), the GI50 (A498) was > 100 µM (inactive) and the GI50 (A549) was > 100 µM (inactive). The GI50 (ACHN) was > 100 µM (inactive), the GI50 (CAKI-1) was > 100 µM (inactive) and the GI50 (CCRF-CEM) was > 100 µM (inactive). For the same compound, the GI50 (COLO 205) was > 100 µM (inactive), the GI50 (DLD-1) was > 100 µM (inactive) and the GI50 (DMS-114) was > 100 µM (inactive). For the same compound, the GI50 (DMS-273) was > 100 µM (inactive), the GI50 (EKVX) was > 100 µM (inactive) and the GI50 (HCC 2998) was > 100 µM (inactive). The GI50 (HCT-15) was > 100 µM, the GI50 (HL-60) was > 100 µM (inactive) and the GI50 (HOP-18) was > 100 µM (inactive). The GI50 (HOP-62) was > 100 µM (inactive), the GI50 (HOP-92) was > 100 µM (inactive) and the GI50 (HT-29) was > 100 µM (inactive). For the same compound, the GI50 (IGROV-1) was > 100 µM (inactive), the GI50 (K562) was > 100 µM (inactive) and the GI50 (KM-20L2) was > 100 µM (inactive). The GI50 (KM12) was > 100 µM (inactive), the GI50 (LOX IMVI) was > 100 µM (inactive) and the GI50 (M19-MEL) was > 100 µM (inactive). For the same compound, the GI50 (MOLT-4) was > 100 µM (inactive), the GI50 (Malme-3M) was > 100 µM (inactive) and the GI50 (NCI-H226) was > 100 µM (inactive). The GI50 (NCI-H23) was > 100 µM (inactive), the GI50 (NCI-H460) was > 100 µM (inactive) and the GI50 (NCI-H522) was > 100 µM (inactive). For the same compound, the GI50 (OVCAR-3) was > 100 µM (inactive), the GI50 (OVCAR-5) was > 100 µM (inactive) and the GI50 (OVCAR-8) was > 100 µM (inactive). For the same compound, the GI50 (RPMI-8226) was > 100 µM (inactive), the GI50 (RXF 393) was > 100 µM (inactive) and the GI50 (SF-268) was > 100 µM (inactive). For the same compound, the GI50 (SF-295) was > 100 µM (inactive), the GI50 (SF-539) was > 100 µM (inactive) and the GI50 (SK-MEL-28) was > 100 µM (inactive). For the same compound, the GI50 (SK-MEL-2) was > 100 µM (inactive), the GI50 (SK-MEL-5) was > 100 µM (inactive) and the GI50 (SK-OV-3) was > 100 µM (inactive). For the same compound, the GI50 (SN12C) was > 100 µM (inactive), the GI50 (SNB-19) was > 100 µM (inactive) and the GI50 (SNB-75) was > 100 µM (inactive). For the same compound, the GI50 (SNB-78) was > 100 µM (inactive), the GI50 (SW-620) was > 100 µM (inactive) and the GI50 (TK-10) was > 100 µM (inactive). The GI50 (U-251) was > 100 µM (inactive), the GI50 (UACC-257) was > 100 µM (inactive) and the GI50 (UACC-62) was > 100 µM (inactive). For the same compound, the GI50 (UO-31) was > 100 µM (inactive).
